Results reported in ChEMBL document CHEMBL1201862, “PubChem BioAssay data set” (2004).
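Test compounds were applied to cells in 96-well plates for 48 hours at 5 doses. The concentration for 50% growth inhibition is given as GI50.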 Active and inactive are the calls of the source. Cut-off read from the data, not from the text of the source: active = GI50 up to about 1.1 µM and inactive = higher. Where a SMILES comes first, the peptide text is derived from it. [ ]: non-standard residue; d: D form. The star is where a group is joined. Phe(4-NO2) = N[CH](Cc1ccc([N+](=O)[O-])cc1)C(=O)O; Boc = CC(C)(C)OC(=O)*; OBn = c1ccc(CO*)cc1

Assays:
Experiment in all cases: DTP human tumour cell line panel, 48 h
[1] = test system: LOX IMVI
[2] = test system: MDA-N
[3] = test system: A549
[4] = test system: IGROV-1
[5] = test system: MCF7
[6] = test system: KM12
[7] = test system: UACC-62
[8] = test system: OVCAR-5
[9] = test system: K562
[10] = test system: M14
[11] = test system: ACHN
[12] = test system: NCI-H522
[13] = test system: SN12C
[14] = test system: COLO 205
[15] = test system: HOP-62
[16] = test system: SK-OV-3
[17] = test system: RXF 393
[18] = test system: 786-0
[19] = test system: HCT-15
[20] = test system: HL-60

`CCOC(=O)c1oc2ccc([N+](=O)[O-])c3c2c1CCC3` was tested, and the GI50 [1] was 66.5 µM (inactive), the GI50 [2] was > 100 µM (inactive) and the GI50 [3] was > 100 µM (inactive). For the same compound, the GI50 [4] was 57.9 µM (inactive), the GI50 [5] was > 76.6 µM (inactive) and the GI50 [6] was > 79.3 µM (inactive). The GI50 [7] was 13.8 µM (inactive), the GI50 [8] was > 92 µM (inactive) and the GI50 [9] was > 69.7 µM (inactive). For the same compound, the GI50 [10] was > 86.3 µM (inactive), the GI50 [11] was 58.3 µM (inactive) and the GI50 [12] was 35.2 µM (inactive). The GI50 [13] was > 84.3 µM (inactive), the GI50 [14] was > 85.1 µM (inactive) and the GI50 [15] was 24.3 µM (inactive). For the same compound, the GI50 [16] was 9.89 µM (inactive), the GI50 [17] was 26 µM (inactive) and the GI50 [18] was 25.6 µM (inactive). The GI50 [19] was 97.9 µM and the GI50 [20] was > 93.8 µM (inactive).

For `C[C@@H](NC(=O)Nc1cccc(C(=O)Nc2cc(C(C)(C)C)ccc2C(=O)O)n1)c1ccccc1`, the GI50 [1] was 19.3 µM (inactive), the GI50 [2] was 38.4 µM (inactive) and the GI50 [3] was 44.3 µM (inactive). For the same compound, the GI50 [4] was 37.9 µM (inactive), the GI50 [5] was 16.4 µM (inactive) and the GI50 [6] was 55.1 µM (inactive). For the same compound, the GI50 [7] was 19.7 µM (inactive), the GI50 [8] was 33.4 µM (inactive) and the GI50 [9] was 42.5 µM (inactive). The GI50 [10] was 31 µM (inactive), the GI50 [11] was 35.2 µM (inactive) and the GI50 [12] was 40.8 µM (inactive). The GI50 [13] was 49.8 µM (inactive), the GI50 [14] was 27.3 µM (inactive) and the GI50 [15] was 28.4 µM (inactive). For the same compound, the GI50 [16] was 43.8 µM (inactive), the GI50 [17] was 21.5 µM (inactive) and the GI50 [18] was 37.5 µM (inactive). For the same compound, the GI50 [19] was 44.2 µM and the GI50 [20] was 45.3 µM (inactive).

In the case of `O=C1SC(SCc2ccccc2)=NC12CC2c1ccccc1` (stereo not given), the GI50 [1] is reported as 18.8 µM (inactive), the GI50 [2] is reported as 20.9 µM (inactive) and the GI50 [3] is reported as 26.9 µM (inactive). For the same compound, the GI50 [4] was 21.4 µM (inactive), the GI50 [5] was 18.8 µM (inactive) and the GI50 [6] was 17.7 µM (inactive). For the same compound, the GI50 [7] was 17.1 µM (inactive), the GI50 [8] was 18.5 µM (inactive) and the GI50 [9] was 19.5 µM (inactive). For the same compound, the GI50 [10] was 17.4 µM (inactive), the GI50 [11] was 17.9 µM (inactive) and the GI50 [12] was 14.5 µM (inactive). The GI50 [13] was 20 µM (inactive), the GI50 [14] was 23.4 µM (inactive) and the GI50 [15] was 29 µM (inactive). For the same compound, the GI50 [16] was 37.7 µM (inactive), the GI50 [17] was 18.7 µM (inactive) and the GI50 [18] was 19.4 µM (inactive). The GI50 [19] was 20.4 µM and the GI50 [20] was 3.56 µM (inactive).

In the case of `CC(C)C/N=C(\N)N=C(N)N`, the GI50 [1] is reported as > 100 µM (inactive), the GI50 [2] is reported as > 100 µM (inactive) and the GI50 [3] is reported as > 100 µM (inactive). For the same compound, the GI50 [4] was > 100 µM (inactive), the GI50 [5] was > 100 µM (inactive) and the GI50 [6] was > 100 µM (inactive). For the same compound, the GI50 [7] was > 100 µM (inactive), the GI50 [8] was > 100 µM (inactive) and the GI50 [9] was > 100 µM (inactive). The GI50 [10] was > 100 µM (inactive), the GI50 [11] was > 100 µM (inactive) and the GI50 [12] was > 100 µM (inactive). For the same compound, the GI50 [13] was > 100 µM (inactive), the GI50 [14] was > 100 µM (inactive) and the GI50 [15] was > 100 µM (inactive). For the same compound, the GI50 [16] was > 100 µM (inactive), the GI50 [17] was > 100 µM (inactive) and the GI50 [18] was > 100 µM (inactive). The GI50 [19] was over 100 µM and the GI50 [20] was > 100 µM (inactive).

With `COC(=O)CCC(NC(=O)OC(C)(C)C)C(=O)NC(Cc1ccc([N+](=O)[O-])cc1)C(=O)NCC(=O)OCc1ccccc1` (stereo not given) (Boc-Glu(OMe)-[Phe(4-NO2)]-Gly-OBn; configuration not given here) the GI50 [1] was > 48.2 µM (inactive), the GI50 [2] was > 100 µM (inactive) and the GI50 [3] was > 100 µM (inactive). The GI50 [4] was > 100 µM (inactive), the GI50 [5] was > 100 µM (inactive) and the GI50 [6] was > 100 µM (inactive). The GI50 [7] was > 31.6 µM (inactive), the GI50 [8] was > 100 µM (inactive) and the GI50 [9] was > 100 µM (inactive). For the same compound, the GI50 [10] was > 100 µM (inactive), the GI50 [11] was > 100 µM (inactive) and the GI50 [12] was > 100 µM (inactive). The GI50 [13] was > 100 µM (inactive), the GI50 [14] was 38.7 µM (inactive) and the GI50 [15] was 27.8 µM (inactive). For the same compound, the GI50 [16] was > 82.2 µM (inactive), the GI50 [17] was 26.9 µM (inactive) and the GI50 [18] was 45.5 µM (inactive). The GI50 [19] was over 100 µM and the GI50 [20] was > 74.1 µM (inactive).
